In patent US5834435A, “Inhibition of TNF-α pleiotropic and cytotoxic effects” (priority 1996, dated 1998):

Columns and labels:
[1] = test system: E6/1.2 anti-GMDP monoclonal antibody; test: Antibody capture assay with antigen competition variation; assay type: binding, mouse; conditions: 1 μg/well and 0.1 μg/well GMDP-Lys-PAA; FIGS. 1A,B and 2
Excerpt: Antibody capture assay (Antibodies: A laboratory Manual (E. Harlow and D. Lane, eds.), Cold Spring Harbor Laboratory, 1988) with antigen competition variation has been used to detect GMDP in human […]. Highly specific mouse E6/1.2 anti-GMDP monoclonal antibody (Ka=2×10^9 M^-1) and GMDP conjugated to polyacrylamide backbone through amino group of lysine (GMDP-Lys-PAA) were obtained from Dr. Nesmeyanov, the Shemyakin and Ovchinnikov Institute of Bioorganic Chemistry, Russian Academy of Sciences, Moscow, Russia.
Briefly, GMDP-Lys-PAA or serial dilutions of human female milk in phosphate buffered saline (PBS) were adsorbed onto wells of microtiter plates for several hours. After washing with PBS, remaining binding sites were blocked by 1 h incubations with 200 μl PBS+3% bovine serum albumin (BSA). After washing with PBS 100 μl of E6/1.2 antibody, diluted 1:1,000 or 1:2,000 with PBS+1% BSA, were added. The incubation was carried out for 1 h at room temperature. […] Optical density at 492 nm was measured.
Two different amounts of GMDP-Lys-PAA in PBS were adsorbed onto wells of microtiter plates (1 μg/well and 0.1 μg/well). […] Inhibition index (I,%) was calculated from: I=(1-Ao/A1)×100, where Ao and A1 are optical densities of samples without or with inhibitor, respectively.

[2] = test system: isolated cardiac myocytes; test: Effects of TNF-α on contractivity of adult cardiac myocytes (cell shortening, video edge detection); assay type: cell-based, human
Experimental: Myocardial samples were obtained from organ donors, whose hearts were initially considered for cardiac transplantation but were subsequently deemed unsuitable for transplantation because of blood type or size incompatibility. Freshly isolated myocytes were treated for 60 minutes at 37° C. with single concentration of GMDP (5 μg/ml). Control cells were treated with single concentration of recombinant human TNF-α (Genzyme) that is known to produce negative inotropic effects in isolated cardiac myocytes (200 μ/ml). Cell motion was characterized with video edge detection as previously described in detail (17). Results were expressed as percentage change in cell length from resting values.

[3] = test system: patients with terminate stage of cancer
Excerpt: 27 patients with terminate stage of cancer participated in this study. The study group consisted of 19 females and 8 males between 14 and 59 years of age. 3 of them have had malignant brain tumors glioblastoma multiforme, 9 patients had breast carcinoma with massive metastasis to the liver or brain, one patient had intermediate stage lymphoma, one of them had stomach cancer with liver metastasis, three patients had hepatomas with lung metastasis, and two of them pancreatic cancer with liver metastasis.
19 patients were given GMDP orally at dosage of 50 mg daily as a water solution for fourteen days. 8 patients received a placebo.
Results were expressed as percentage change in LDH activity from pretreatment values.

[4] = test system: patients with terminate stage of cancer; remark: listed apart in the source
Excerpt: Results were expressed as percentage change in both triglycerides and cholesterol level from pretreatment values.

[5] = test system: isolated cardiac myocytes; test: Intracellular fluorescence brightness in isolated cardiac myocytes; assay type: cell-based; conditions: 200 μ/ml TNF-α; n=45 cells/group; FIG. 7 insert
Excerpt: As shown, the peak level of intracellular fluorescence brightness was reduced strikingly for the cells treated with 200 μ/ml TNF-α.

Compound	inhibition of E6/1.2 antibody interaction with the adsorbed GMDP-Lys-PAA [1]	negative inotropic effects of TNF-α in isolated cardiac myocytes ([2]; FIGS. 6 and 7 taken together)	effects of TNF alfa on cell shortening after pretreatment ([2]; GMDP 5 μg/ml, 60 minutes at 37° C., 200 μ/ml TNF alfa, FIG. 6)	overall clinical condition during the follow up period ([3]; all patients treated with GMDP)	side effects ([3]; orally 50 mg daily as water solution for fourteen days)	decreasing of LDH activity (percentage change from pretreatment values) ([3]; orally 50 mg daily, fourteen days, lowest level at the fourteenth day, FIG. 8) [%]	nausea and vomiting subsided ([3]; patients who had these symptoms of tumor toxicity before treatment) [patients]	reduction of elevated cholesterol level (percentage change from pretreatment values) ([4]; patient treated with GMDP, FIG. 10) [%]	decreasing for triglycerides concentration (percentage change from pretreatment values) ([4]; treated patients with elevated triglycerides, FIG. 9) [%]	cell shortening ([2]; cells treated with TNF-α vs control, n=40 cells/group, FIG. 6)	decrease in the percent change in peak intensity of fluorescence brightness [5]
CC(=O)NC1C(OC2C(CO)OC(O)C(NC(C)=O)C2OC(C)C(=O)NC(C)C(=O)NC(CCC(=O)O)C(N)=O)OC(CO)C(O)C1O [GMDP, N-acetyl-D-glucosaminyl-(β1-4)-N-acetylmuramyl-L-alanyl-D-isoglutamine]	inhibition	inhibits	completely attenuated	improved	None	68	7	51	82	–	–
TNF-α [reference compound]	–	–	–	–	–	–	–	–	–	concentration-dependent decrease	~ 38%
